Results as given in patent publication US20260191815A1, “THIOACRYLAMIDE DERIVATIVES FOR USE IN THE PREVENTION OR TREATMENT OF LIVER FIBROSIS” (CMR CUREDIAB METABOLIC RESEARCH GMBH, priority 2022, published 2026).

Assays:
[1] = test system: caspase 3/7 activity in primary human hepatocytes; assay: Caspase 3/7 activity provoked by palmitate in primary human hepatocytes; assay type: cell-based
Procedure: (§1) The potential protective effect of HK1 and HK3 on caspase 3/7 activity in HepG2 cells and primary human hepatocytes was analysed.
(§2) HepG2 cells were obtained from Merck (Darmstadt, Germany) (ECACC-certified), while primary human hepatocytes were obtained from Thermo Fisher Scientific (Waltham, MA, USA), and all were cultured according to the instructions of the respective manufacturers. During experiments, cells were cultured in serum-free medium. Unless otherwise stated, cells were treated with 200 μM bovine serum albumin (BSA)-conjugated palmitate (Cayman Chemicals, Ann Arbor, MI) alone or in combination with 10 μM HK1 (Taros Chemicals GmbH & Co. KG, Dortmund, Germany) and HK3 (Taros Chemicals GmbH & Co. KG, Dortmund, Germany) 30 min prior to palmitate exposure for 24 hours. The vehicle BSA was used according to the palmitate concentration and DMSO according to HK1 and HK3 concentration. 2 μM Staurosporine (Abcam, Cambridge, GB) was used as a positive and 100 μM Caspase 3/7 inhibitor (CI) (Cayman Chemicals) as a negative control.
(§3) Differences were analysed by one-way ANOVA.

[2] = test system: caspase 3/7 activity in HepG2 cells; assay: Caspase 3/7 activity provoked by palmitate in HepG2 cells; assay type: cell-based
Procedure: as §1, §2, §3
A hepatoprotective effect was determined as described in Example 4. A treatment was performed with HK1, HK2, HK3, HK4 or HK5 (100 nM) either alone or in combination with palmitate (200 μM).
Differences were analysed by one-way ANOVA, n=4.

[3] = test system: alpha-1 type 1 collagen (COL1A1) protein in LX2 cells; assay: Simple Western of COL1A1 protein in TGF-β1-stimulated LX2 hepatic stellate cells; assay type: cell-based, human; conditions: 5 ng/ml TGF-β1, 24 h, LX2 cells
Procedure: (§4) The human hepatic stellate cell line LX2 was purchased from Merck. The cells were used up to passage ten and incubated under sterile conditions at 37° C. and 5% CO2. The cells were cultivated in medium containing Dulbecco's Modified Eagle's Medium with 4.5 g/l glucose (ThermoFisher), 4 mmol/l glutamine (ThermoFisher), 2% fetal bovine serum (FBS) (Merck), 100 U/ml penicillin and 100 μg/ml streptomycin (Merck). After 2 days, LX2 cells were starved for FBS for 24 h and then pretreated with 10 μM HK1 (Taros Chemicals GmbH & Co. KG) or 10 μM HK3 (Taros Chemicals GmbH & Co. KG) for 30 min. Subsequently, 5 ng/ml recombinant TGF-β1 (R&D Systems, Minneapolis, MN, USA) was added to the hepatic stellate cell cultures for 24 h. LX2 cells were also incubated with 5 ng/ml TGF-β1 alone as positive control for the hepatic stellate cell activation. Recombinant TGF-β1 was dissolved in sterile 4 mmol/l HCl (Merck) containing 0.1% bovine serum albumin (Roth Karlsruhe, Germany) as carrier protein. HK1 and HK3 were dissolved in sterile dimethyl sulfoxide (DMSO) (Sigma-Aldrich, Munich, Germany). Stimulations with 10 μM HK1, 10 μM HK3 and the corresponding vehicles (HCl and DMSO with or without HCl) alone for 24 h were also included as treatments.
(§5) For the measurement of the pro-fibrotic proteins, Western Blotting was performed. Proteins were extracted from whole cell lysate of LX2 cells using RIPA lysis buffer containing 50 mmol/l Tris-HCl (pH 8.0), 150 mmol/l NaCl, 1% IGEPAL® CA-630, 0.5% sodium deoxycholate, 0.1% sodium dodecyl sulfate, 10% PhosSTOP Phosphatase Inhibitor Cocktail (Roche, Basel, Switzerland) and 10% cOmplete Mini Protease Inhibitor Cocktail (Roche). Lysates were centrifuged at 14850×g for 15 min at 4° C. Then, the total protein content of the lysates was determined using a bicinchoninic acid protein assay (ThermoFisher Scientific) in accordance with the manufacturer's instructions. The quantification of protein abundance was performed by Simple Western size-based assays using a 12-230 kDa and 66-440 kDa Separation Module (ProteinSimple, San Jose, CA, USA) according to the manufacturer's instructions. This fully automated Western blotting system is based on a capillary electrophoresis technology. The separation, immobilization to the capillary wall via a proprietary, photoactivated capture chemistry and immunodetection of the proteins using a horseradish peroxidase (HRP)-conjugated secondary antibody and chemiluminescent substrate take place directly in the capillary without gel separation and transfer steps to blotting paper. The chemiluminescence is measured at multiple exposure times and automatically quantified by the Compass for Simple Western software (version 4.1.0) (ProteinSimple). The chemiluminescent signal for immunodetected proteins, which can be represented as an electropherogram or virtual blot-like image, is automatically quantified by calculation of the area under the curve of the peak.
(§6) The software reports the molecular weight, the area (in an arbitrary unit and in percent) and signal to noise ratio for each protein detected. The primary antibodies for the recognition of endogenous levels of total alpha-1 type 1 collagen (COL1A1) protein (#72026) and total fibronectin 1 (FN1) protein (#26836) were purchased from Cell Signaling Technology (Danvers, MA, USA). The anti-rabbit HRP-linked secondary antibody was from ProteinSimple. […]
(§7) Differences were analysed by one-way ANOVA followed by the Tukey method as correction for multiple testing.

[4] = test system: leukaemia inhibitory factor (LIF) secretion by LX2 cells; assay: Olink Inflammation immunoassay of LX2 supernatants: LIF; assay type: cell-based, human; conditions: 5 ng/ml TGF-β1
Procedure: as §4, with “Recombinant TGF-β1 was dissolved in sterile 4 mmol/l HCl (Merck) containing 0.1% bovine serum albumin (Roth Karlsruhe, Germany) as carrier protein. HK1 and HK3 were dissolved in sterile dimethyl sulfoxide (DMSO) (Sigma-Aldrich, Munich, Germany). Stimulations with 10 μM HK1, 10 μM HK3 and the corresponding vehicles (HCl and DMSO with or without HCl) alone for 24 h were also included as treatments.” left out
(§8) LX2 cells were cultured and treated as described in Example 1. […] This protein quantification method is based on a proximity extension assay technology, which combines a dual-recognition immunoassay using two matched antibodies labelled with DNA oligonucleotides, with a polymerase chain reaction (PCR) amplification and a microfluidic quantitative real-time PCR as readout. […]
as §7

[5] = test system: fibronectin 1 (FN1) protein in LX2 cells; assay: Simple Western of FN1 protein in TGF-β1-stimulated LX2 hepatic stellate cells; assay type: cell-based, human; conditions: 5 ng/ml TGF-β1, 24 h, LX2 cells
Procedure: as §4, §5, §6, §7

[6] = test system: vascular endothelial growth factor A (VEGFA) secretion by LX2 cells; assay: Olink Inflammation immunoassay of LX2 supernatants: VEGFA; assay type: cell-based, human; conditions: 5 ng/ml TGF-β1
Procedure: as §4, with “Recombinant TGF-β1 was dissolved in sterile 4 mmol/l HCl (Merck) containing 0.1% bovine serum albumin (Roth Karlsruhe, Germany) as carrier protein. HK1 and HK3 were dissolved in sterile dimethyl sulfoxide (DMSO) (Sigma-Aldrich, Munich, Germany). Stimulations with 10 μM HK1, 10 μM HK3 and the corresponding vehicles (HCl and DMSO with or without HCl) alone for 24 h were also included as treatments.” left out
as §8, §7

[7] = test system: interleukin-6 (IL-6) secretion by LX2 cells; assay: Olink Inflammation immunoassay of LX2 supernatants: IL-6; assay type: cell-based, human; conditions: 5 ng/ml TGF-β1
Procedure: as §4
LX2 cells were cultured and treated as described in Example 1. After the incubation time, the supernatants of LX2 cells were collected, centrifuged for 10 min at 2000×g at 4° C. and transferred to new tubes to measure 92 proteins in the cell culture supernatants simultaneously using the Olink Inflammation multiplex immunoassay (Olink proteomics, Uppsala, Sweden). This panel covers 92 proteins, including pro- and anti-inflammatory cytokines, growth factors, chemokines and factors involved in biological processes such as apoptosis, inflammatory and immune response, cell adhesion, chemotaxis, or fibrosis. This protein quantification method is based on a proximity extension assay technology, which combines a dual-recognition immunoassay using two matched antibodies labelled with DNA oligonucleotides, with a polymerase chain reaction (PCR) amplification and a microfluidic quantitative real-time PCR as readout. The biomarker concentrations are given as normalized protein expression (NPX) values, which were generated from the threshold cycle values from the qPCR, and represent an arbitrary unit on a log 2 scale.
as §7

How did the “caspase 3/7 activity, % of control” value ([1]; 100 μM inhibitor + palmitate 200 μM) turn out when `COC[C@@H]1CCCN1S(=O)(=O)c1ccc2c(c1)C(=O)C(=O)N2` [Caspase 3/7 inhibitor, reference compound] was run?
The value was 21.23%±4.33%.

And the “caspase 3/7 activity, % of control” value ([2]; 100 μM caspase 3/7 inhibitor + palmitate 200 μM)?
Its value is 29.65%±24.56%.

With `CN[C@@H]1C[C@H]2O[C@@](C)([C@@H]1OC)n1c3ccccc3c3c4c(c5c6ccccc6n2c5c31)C(=O)NC4` [Staurosporine, reference compound] as the molecule, how does the activity at 2 µM ([2]; Homo sapiens, 2 μM, positive control) read?
The activity at 2 µM was 687%.

`CCCCCCCCCCCCCCCC(=O)O` [palmitate, reference compound] was tested. Which activity at 200 µM ([1]; Hepatocyte, palmitate 200 μM alone, read-out: caspase 3/7 activity, % of control) did it give?
The activity at 200 µM was 129%.

What about the activity at 200 µM ([2]; Homo sapiens, palmitate 200 μM alone, 24 h, read-out: caspase 3/7 activity, % of control) of the same molecule?
The activity at 200 µM was 429%.

Which results are given for “TGF-β1: recombinant TGF-β1 (R&D Systems), positive control for the hepatic stellate cell activation”?
increase of protein levels of COL1A1 compared to untreated cells [3]: 2.6±0.2 fold; increased secretion of LIF compared to untreated LX2 cells [4]: 35.40±9.76 fold; increase of protein levels of FN1 compared to untreated cells [5]: 3.0±0.2 fold; increased secretion of VEGFA compared to untreated LX2 cells [6]: 13.89±2.40 fold; increased secretion of IL-6 compared to untreated LX2 cells [7]: 4.99±2.01 fold
